Results on 31 compounds are retold here after US20230250060A1 (IFM Due, Inc., priority 2022, published 2023).

In general, EC50 refers to the concentration at which the effect is half-maximal.

T1 sequence (Q86WV6 whole entry R71H/G230A/H232R/R293Q): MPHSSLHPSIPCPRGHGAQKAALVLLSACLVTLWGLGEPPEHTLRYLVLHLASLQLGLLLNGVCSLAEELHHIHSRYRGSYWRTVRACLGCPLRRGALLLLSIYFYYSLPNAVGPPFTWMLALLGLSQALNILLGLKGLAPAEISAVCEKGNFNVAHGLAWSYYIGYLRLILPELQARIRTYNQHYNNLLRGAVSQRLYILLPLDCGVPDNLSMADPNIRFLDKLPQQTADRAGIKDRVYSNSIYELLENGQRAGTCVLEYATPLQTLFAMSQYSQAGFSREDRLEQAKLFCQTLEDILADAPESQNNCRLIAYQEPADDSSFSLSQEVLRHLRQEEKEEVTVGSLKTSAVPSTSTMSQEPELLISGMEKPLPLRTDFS

The experiment addresses T1, STING (Homo sapiens, UniProt Q86WV6, G230A/H232R/R293Q/R71H).
T1 construct: host or cells: THP1-Dual KO-IFNAR2 cells
As to the kind of experiment: STING reporter assay (luciferase) in THP1-Dual KO-IFNAR2 cells stimulated with 2′3′cGAMP. The settings on record: 2′3′cGAMP 15 μM final, 24 h, luciferase reporter activity, read-out: Pharmaron, THP1_IFNAR2 STING 24 h Luci Normalized: GeoMean EC50. It is filed as cell-based. The procedure: STING pathway activation by the compounds described herein was measured using TTIP1-Dual™ cells (KO-IFNAR2).
TTIP1-Dual™ KO-IFNAR2 Cells (obtained from invivogen) were maintained in RPMI, 10% FCS, 5 ml P/S, 2 mM L-glut, 10 mM Hepes, and 1 mM sodium pyruvate. Compounds were spotted in empty 384 well tissue culture plates (Greiner 781182) by Echo for a final concentration of 0.0017-100 μM. Cells were plated into the TC plates at 40 μL per well, 2×10E6 cells/mL. For activation with STING ligand, 2′3′cGAMP (MW 718.38, obtained from Invivogen), was prepared in Optimem media.
The following solutions were prepared for each 1×384 plate: • Solution A: 2 mL Optimem with one of the following stimuli: • […] • Solution B: 2 mL Optimem with […] Lipofectamine 2000→Incubate 5 min at RT
2 mL of solution A and 2 ml Solution B was mixed and incubated for 20 min at room temperature (RT). 20 μL of transfection solution (A+B) was added on top of the plated cells, with a final 2′3′cGAMP concentration of 15 μM. The plates were then centrifuged immediately at 340 g for 1 minute, after which they were incubated at 37° C., 5% CO2, >98% humidity for 24 h. Luciferase reporter activity was then measured. EC50 values were calculated by using standard methods known in the art.
Luciferase reporter assay: 10 μL of supernatant from the assay was transferred to white 384-plate with flat bottom and squared wells. One pouch of QUANTI-Luc™ Plus was dissolved in 25 mL of water. 100 μL of QLC Stabilizer per 25 mL of QUANTI-Luc™ Plus solution was added. 50 μL of QUANTI-Luc™ Plus/QLC solution per well was then added. Luminescence was measured on a Platereader (e.g., Spectramax I3X (Molecular Devices GF3637001)).
Luciferase reporter activity was then measured. EC50 values were calculated by using standard methods known in the art.
For the compound `Cc1oncc1C(=O)Nc1c[nH]c2ccc(CCOc3ccc(C(F)(F)F)cc3)cc12` [Compound 118], the EC50 was in the range of 5000 to 100000 nM.

In the case of `Cc1noc(C)c1C(=O)Nc1c[nH]c2ccc(CCOc3ccc(C(F)(F)F)cc3)cc12` [Compound 119, 3,5-dimethyl-N-(5-(2-(4-(trifluoromethyl)phenoxy)ethyl)-1H-indol-3-yl)isoxazole-4-carboxamide], the EC50 is 200 to 1000 nM.

Turning to `O=C(Nc1c[nH]c2ccc(CCOc3ccc(C(F)(F)F)cc3)cc12)c1cncs1` [Compound 120, N-(5-(2-(4-(trifluoromethyl)phenoxy)ethyl)-1H-indol-3-yl)thiazole-5-carboxamide], the EC50 was in the range of 200 to 1000 nM.

Regarding `O=C(Nc1c[nH]c2ccc(OCCc3ccc(C(F)(F)F)cc3)cc12)c1ccncc1` [Compound 121, N-(5-(4-(trifluoromethyl)phenethoxy)-1H-indol-3-yl)isonicotinamide], the EC50 fell in the range of 200 to 1000 nM.

For the compound `O=C(Nc1c[nH]c2ccc(OCCc3ccc(C(F)(F)F)cc3)cc12)c1ccn[nH]1` [Compound 122, N-(5-(4-(trifluoromethyl)phenethoxy)-1H-indol-3-yl)-1H-pyrazole-5-carboxamide], the EC50 lay within 40 to 200 nM.

As for `O=C(Nc1c[nH]c2ccc(OCCc3ccc(C(F)(F)F)cc3)cc12)c1cccnc1` [Compound 123, N-(5-(4-(trifluoromethyl)phenethoxy)-1H-indol-3-yl)nicotinamide], the EC50 is 200 to 1000 nM.

For `O=C(Nc1c[nH]c2ccc(OCCc3ccc(C(F)(F)F)cc3)cc12)c1ccccn1` [Compound 124, N-(5-(4-(trifluoromethyl)phenethoxy)-1H-indol-3-yl)picolinamide], the EC50 lay within 1000 to 5000 nM.

With `O=C(CC1CC1)Nc1c[nH]c2ccc(OCCc3ccc(C(F)(F)F)cc3)cc12` [Compound 125, 2-cyclopropyl-N-(5-(4-(trifluoromethyl)phenethoxy)-1H-indol-3-yl)acetamide], the EC50 lay within 40 to 200 nM.

In the case of `O=C(Nc1c[nH]c2ccc(OCCc3ccc(C(F)(F)F)cc3)cc12)C1CC12CC2` (stereo not shown) [Compound 126, N-(5-(4-(trifluoromethyl)phenethoxy)-1H-indol-3-yl)spiro[2.2]pentane-1-carboxamide], the EC50 fell in the range of 40 to 200 nM.

For `Cc1nnc(C(=O)Nc2c[nH]c3ccc(O[C@H]4C[C@H](c5ccc(C(F)(F)F)cc5)C4)cc23)s1` [Compound 127, 5-methyl-N-(5-((1r,3r)-3-(4-(trifluoromethyl)phenyl)cyclobutoxy)-1H-indol-3-yl)-1,3,4-thiadiazole-2-carboxamide], the EC50 fell in the range of 200 to 1000 nM.

In the case of `Cn1cc(C(=O)Nc2c[nH]c3ccc(O[C@H]4C[C@H](c5ccc(C(F)(F)F)cc5)C4)cc23)nn1` [Compound 128, 1-methyl-N-(5-((1r,3r)-3-(4-(trifluoromethyl)phenyl)cyclobutoxy)-1H-indol-3-yl)-1H-1,2,3-triazole-4-carboxamide], the EC50 was 200 to 1000 nM.

With `N#CC12CC(C(=O)Nc3c[nH]c4ccc(COCc5ccc(C(F)(F)F)cc5)cc34)(C1)C2` [Compound 129, 3-cyano-N-(5-(((4-(trifluoromethyl)benzyl)oxy)methyl)-1H-indol-3-yl)bicyclo[1.1.1]pentane-1-carboxamide], the EC50 was 200 to 1000 nM.

On to `O=C(Nc1c[nH]c2ccc(COCc3ccc(C(F)(F)F)cc3)cc12)C12CC(c3ccccc3)(C1)C2` [Compound 130, 3-phenyl-N-(5-(((4-(trifluoromethyl)benzyl)oxy)methyl)-1H-indol-3-yl)bicyclo[1.1.1]pentane-1-carboxamide], for which the EC50 was 40 to 200 nM.

In the case of `O=C(Nc1c[nH]c2ccc(OCCc3ccc(C(F)(F)F)cc3)cc12)C12CC(C1)C2` [Compound 131, N-(5-(4-(trifluoromethyl)phenethoxy)-1H-indol-3-yl)bicyclo[1.1.1]pentane-1-carboxamide], the EC50 is 200 to 1000 nM.

Turning to `O=C(Nc1c[nH]c2ccc(O[C@H]3C[C@@H](c4ccc(C(F)(F)F)cc4)C3)cc12)C12CC(F)(C1)C2` [Compound 132, 3-fluoro-N-(5-((1s,3s)-3-(4-(trifluoromethyl)phenyl)cyclobutoxy)-1H-indol-3-yl)bicyclo[1.1.1]pentane-1-carboxamide], the EC50 lay in the range of 200 to 1000 nM.

On to `O=C(Nc1c[nH]c2ccc(O[C@H]3C[C@H](c4ccc(C(F)(F)F)cc4)C3)cc12)C12CC(F)(C1)C2` [Compound 133, 3-fluoro-N-(5-((1r,3r)-3-(4-(trifluoromethyl)phenyl)cyclobutoxy)-1H-indol-3-yl)bicyclo[1.1.1]pentane-1-carboxamide], for which the EC50 fell in the range of 40 to 200 nM.

Take `O=C(Nc1c[nH]c2ccc(COCc3ccc(C(F)(F)F)cc3)cc12)C12CC(F)(C1)C2` [Compound 134, 3-fluoro-N-(5-(((4-(trifluoromethyl)benzyl)oxy)methyl)-1H-indol-3-yl)bicyclo[1.1.1]pentane-1-carboxamide]: the EC50 fell in the range of 200 to 1000 nM.

Regarding `O=C(Nc1c[nH]c2ccc(CCOc3ccc(C(F)(F)F)cc3)cc12)C12CC(C1)C2` [Compound 135], the EC50 was 200 to 1000 nM.

On to `Cn1ccnc1C(=O)Nc1c[nH]c2ccc(OCc3ccc(C(F)(F)F)cc3)cc12` [Compound 136, 1-methyl-N-(5-((4-(trifluoromethyl)benzyl)oxy)-1H-indol-3-yl)-1H-imidazole-2-carboxamide], for which the EC50 was in the range of 200 to 1000 nM.

Take `O=C(Nc1c[nH]c2ccc(OCc3ccc(C(F)(F)F)cc3)cc12)c1ccn[nH]1` [Compound 137, N-(5-((4-(trifluoromethyl)benzyl)oxy)-1H-indol-3-yl)-1H-pyrazole-5-carboxamide]: the EC50 is 200 to 1000 nM.

In the case of `O=C(Nc1c[nH]c2ccc(OCc3ccc(C(F)(F)F)cc3)cc12)C12CC(F)(C1)C2` [Compound 138, 3-fluoro-N-(5-((4-(trifluoromethyl)benzyl)oxy)-1H-indol-3-yl)bicyclo[1.1.1]pentane-1-carboxamide], the EC50 lay within 200 to 1000 nM.

Consider `Cn1ccnc1C(=O)Nc1c[nH]c2ccc(O[C@H]3C[C@@H](c4ccc(C(F)(F)F)cc4)C3)cc12` [Compound 139, 1-methyl-N-(5-((1s,3s)-3-(4-(trifluoromethyl)phenyl)cyclobutoxy)-1H-indol-3-yl)-1H-imidazole-2-carboxamide], for which the EC50 lay in the range of 200 to 1000 nM.

Regarding `Cn1ccnc1C(=O)Nc1c[nH]c2ccc(OCC[C@@H]3C[C@@H]4CN(CC(F)(F)F)C[C@@H]4C3)cc12` [Compound 140, 1-methyl-N-(5-(2-((3aR,5r,6aS)-2-(2,2,2-trifluoroethyl)octahydrocyclopenta[c]pyrrol-5-yl)ethoxy)-1H-indol-3-yl)-1H-imidazole-2-carboxamide], the EC50 lay within 200 to 1000 nM.

For `O=C(Nc1c[nH]c2ccc(OCc3ccc(C(F)(F)F)cc3)cc12)c1nccs1` [Compound 141, N-(5-((4-(trifluoromethyl)benzyl)oxy)-1H-indol-3-yl)thiazole-2-carboxamide], the EC50 was 200 to 1000 nM.

With `CC12CC(C(=O)Nc3c[nH]c4ccc(OCC[C@@H]5C[C@@H]6CN(CC(F)(F)F)C[C@@H]6C5)cc34)(C1)C2` [Compound 142, 3-methyl-N-(5-(2-((3aR,5r,6aS)-2-(2,2,2-trifluoroethyl)octahydrocyclopenta[c]pyrrol-5-yl)ethoxy)-1H-indol-3-yl)bicyclo[1.1.1]pentane-1-carboxamide], the concentration for a half-maximal effect (EC50) fell in the range of 200 to 1000 nM.

On to `Cn1ccnc1C(=O)Nc1c[nH]c2ccc(CCOc3ccc(C(F)(F)F)cc3)cc12` [Compound 143, 1-methyl-N-(5-(2-(4-(trifluoromethyl)phenoxy)ethyl)-1H-indol-3-yl)-1H-imidazole-2-carboxamide], for which the EC50 lay in the range of 40 to 200 nM.

On to `O=C(Nc1c[nH]c2ccc(CCOc3ccc(C(F)(F)F)cc3)cc12)C1CC2(CCC2)C1` [Compound 144, N-(5-(2-(4-(trifluoromethyl)phenoxy)ethyl)-1H-indol-3-yl)spiro[3.3]heptane-2-carboxamide], for which the EC50 was in the range of 40 to 200 nM.

`O=C(Nc1c[nH]c2ccc(CCOc3ccc(C(F)(F)F)cc3)cc12)c1ncco1` [Compound 145, N-(5-(2-(4-(trifluoromethyl)phenoxy)ethyl)-1H-indol-3-yl)oxazole-2-carboxamide]: the EC50 lay in the range of 200 to 1000 nM.

For `Cn1ccnc1C(=O)Nc1c[nH]c2ccc(OCCc3ccc(C(F)(F)F)cc3)cc12` [Compound 146, 1-methyl-N-(5-(4-(trifluoromethyl)phenethoxy)-1H-indol-3-yl)-1H-imidazole-2-carboxamide], the EC50 is 40 to 200 nM.

As for `O=C(Nc1c[nH]c2ccc(OCc3ccc(C(F)(F)F)cc3)cc12)c1ccncc1` [Compound 147, N-(5-((4-(trifluoromethyl)benzyl)oxy)-1H-indol-3-yl)isonicotinamide], the EC50 was 200 to 1000 nM.

Turning to `O=C(Nc1c[nH]c2ccc(OCc3ccc(C(F)(F)F)cc3)cc12)c1cccnc1` [Compound 148, N-(5-((4-(trifluoromethyl)benzyl)oxy)-1H-indol-3-yl)nicotinamide], the EC50 lay within 200 to 1000 nM.
